# Data published in patent US20220089575A1, “FARNESOID X RECEPTOR AGONISTS AND USES THEREOF” (Metacrine, Inc., priority 2017, published 2022).
# Target: T1, hFXR (Homo sapiens, UniProt Q96RI1)
# T1 construct: expressed in transfected cells; host or cells: CV-1 cells
# T1 sequence (Q96RI1 1-486): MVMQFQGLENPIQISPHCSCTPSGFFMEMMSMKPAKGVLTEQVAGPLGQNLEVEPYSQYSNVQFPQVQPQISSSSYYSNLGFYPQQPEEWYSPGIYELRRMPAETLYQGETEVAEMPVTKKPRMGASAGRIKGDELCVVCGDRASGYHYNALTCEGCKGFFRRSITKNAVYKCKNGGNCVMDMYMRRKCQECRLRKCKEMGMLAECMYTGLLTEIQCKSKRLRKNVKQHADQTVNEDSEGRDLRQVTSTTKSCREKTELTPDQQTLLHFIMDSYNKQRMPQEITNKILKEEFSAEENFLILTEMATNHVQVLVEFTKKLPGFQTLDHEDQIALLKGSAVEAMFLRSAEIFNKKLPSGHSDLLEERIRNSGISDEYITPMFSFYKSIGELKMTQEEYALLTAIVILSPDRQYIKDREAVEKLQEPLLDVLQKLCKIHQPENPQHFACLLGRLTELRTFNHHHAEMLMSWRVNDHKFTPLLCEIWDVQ
# T1 sequence (P19793 1-462 partner): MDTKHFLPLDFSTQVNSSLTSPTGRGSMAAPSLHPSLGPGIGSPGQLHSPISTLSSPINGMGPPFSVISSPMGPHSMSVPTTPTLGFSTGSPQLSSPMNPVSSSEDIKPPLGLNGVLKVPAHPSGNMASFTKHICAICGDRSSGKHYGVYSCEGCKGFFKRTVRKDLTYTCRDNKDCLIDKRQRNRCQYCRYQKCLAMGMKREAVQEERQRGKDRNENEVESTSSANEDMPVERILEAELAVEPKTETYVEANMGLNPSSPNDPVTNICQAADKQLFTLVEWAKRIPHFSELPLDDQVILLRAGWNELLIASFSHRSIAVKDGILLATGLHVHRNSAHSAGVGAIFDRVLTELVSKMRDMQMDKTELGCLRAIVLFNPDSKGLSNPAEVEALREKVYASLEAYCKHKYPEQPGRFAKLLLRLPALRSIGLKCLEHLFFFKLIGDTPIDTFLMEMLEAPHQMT
# Experiment: In Vitro FXR Assay (TK): TK-ECRE-luc reporter in transfected CV-1 cells
# Type: cell-based
# Conditions: 18 hrs, luminescence, maximum efficacy of <25% of the Fexarmine control classified as '+'
# How it was run: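 Transiently transfected monkey CV-1 cells (hFXR, hRXR, TK-ECRE-luciferase, YFP control plasmid), held in stripped-serum DMEM, received compound dilutions from DMSO for 18 h at 37 °C. Activity was taken from luminescence of the cell lysates.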
row,EC50 [µM],Structure (SMILES)
1,≤ 0.25,"COc1ccc([C@H]2CC[C@H](CN(c3cccc(-c4cnn(C5CC5)c4)c3)C(=O)[C@H]3CC[C@H](OC(=O)N4CC([S+](C)[O-])C4)CC3)CC2)cc1C (stereo partly drawn) [Compound 8.01, trans-4-((3-(1-Cyclopropyl-1H-pyrazol-4-yl)phenyl)((trans-4-(4-methoxy-3-methylphenyl)cyclohexyl)methyl)carbamoyl)cyclohexyl 3-(methylsulfinyl)azetidine-1-carboxylate]"
2,≤ 0.25,"COc1ccc([C@H]2CC[C@H](CN(c3cccc(-c4cnn(C5CC5)c4)c3)C(=O)[C@H]3CC[C@H](c4noc(=O)[nH]4)CC3)CC2)cc1C [Compound 34, trans-N-(3-(1-Cyclopropyl-1H-pyrazol-4-yl)phenyl)-N-((trans-4-(4-methoxy-3-methylphenyl)cyclohexyl)methyl)-4-(5-oxo-4,5-dihydro-1,2,4-oxadiazol-3-yl)cyclohexanecarboxamide]"
3,≤ 0.25,"COc1ccc([C@H]2CC[C@H](CN(c3cc(-c4coc(C5CC5)n4)ccn3)C(=O)[C@H]3CC[C@H](CNS(C)(=O)=O)CC3)CC2)nc1C [Compound 26.26, trans-N-(4-(2-Cyclopropyloxazol-4-yl)pyridin-2-yl)-N-((trans-4-(5-methoxy-6-methylpyridin-2-yl)cyclohexyl)methyl)-4-(methylsulfonamidomethyl) cyclohexanecarboxamide]"
4,≤ 0.25,"COc1ccc([C@H]2CC[C@H](CN(c3cccc(-c4cnc(C5CC5)s4)c3)C(=O)[C@H]3CC[C@H](NC(=O)OCCO)CC3)CC2)cc1C [Compound 28, 2-Hydroxyethyl (trans-4-((3-(2-cyclopropylthiazol-5-yl)phenyl)((trans-4-(4-methoxy-3-methylphenyl)cyclohexyl)methyl)carbamoyl)cyclohexyl)carbamate]"
5,≤ 0.25,"CCNC(=O)O[C@H]1CC[C@H](C(=O)N(C[C@H]2CC[C@H](c3ccc(OC)c(C)c3)CC2)c2cccc(-c3cnn(C4CC4)c3)c2)CC1 [Compound 3.01, trans-4-((3-(1-Cyclopropyl-1H-pyrazol-4-yl)phenyl)((trans-4-(4-methoxy-3-methylphenyl)cyclohexyl)methyl)carbamoyl)cyclohexyl ethylcarbamate]"
6,≤ 0.25,"CNC(=O)O[C@H]1CC[C@H](C(=O)N(C[C@H]2CC[C@H](c3ccc(OC)c(C#N)c3)CC2)c2cc(-c3coc(C4CC4)n3)ccn2)CC1 [Compound 5.39, trans-4-(((trans-4-(3-Cyano-4-methoxyphenyl)cyclohexyl)methyl)(4-(2-cyclopropyloxazol-4-yl)pyridine-2-yl)carbamoyl)cyclohexyl methylcarbamate]"
7,≤ 0.25,"COc1ccc([C@H]2CC[C@H](CN(c3cc(-c4cnc(C5CC5)s4)ccn3)C(=O)[C@H]3CC[C@H](OC(=O)N4CC(O)C4)CC3)CC2)nc1C#N [Compound 7.10, trans-4-(((trans-4-(6-Cyano-5-methoxypyridin-2-yl)cyclohexyl)methyl)(4-(2-cyclopropylthiazol-5-yl)pyridin-2-yl)carbamoyl)cyclohexyl 3-hydroxyazetidine-1-carboxylate]"
8,≤ 0.25,"COc1ccc([C@H]2CC[C@H](CN(c3cc(-c4cnc(C5CC5)s4)ccn3)C(=O)[C@H]3CC[C@H](CC(=O)O)CC3)CC2)cc1C [Compound 20.02, 2-(trans-4-((4-(2-Cyclopropylthiazol-5-yl)pyridin-2-yl)((trans-4-(4-methoxy-3-methylphenyl)cyclohexyl)methyl)carbamoyl)cyclohexyl)acetic acid]"
9,≤ 0.25,"COc1ncc(-c2cccc(N(C[C@H]3CC[C@H](c4ccc(OC)c(C)c4)CC3)C(=O)[C@H]3CC[C@H](C(=O)N(C)C)CC3)c2)s1 [Compound 24.02, trans-N^1-((trans-4-(4-Methoxy-3-methylphenyl)cyclohexyl)methyl)-N^1-(3-(2-methoxythiazol-5-yl)phenyl)-N^4,N^4-dimethylcyclohexane-1,4-dicarboxamide]"
